Results: publication PMC10583827 (RSC Medicinal Chemistry, 2023)

Assays:
[1] = test system: L. major strain IR173 promastigotes; assay: Leishmania antipromastigote assay; type: cell-based; settings: read-out: Anti-promastigote activity IC50
[2] = test system: T. cruzi strain CL trypomastigotes; assay: T. cruzi antitrypomastigote assay; type: cell-based, Trypanosoma cruzi; settings: >10 = did not qualify at 10 μM screen
Vero cells = assay: General/basal cytotoxicity, resazurin assay; settings: Vero cells, 48 h, mean ± SD

Row | IC50 [1] | Anti-trypomastigote activity IC50 [2] | SMILES | General cytotoxicity Vero IC50 (Vero cells)
1 | 30 ± 10 nM |  | C[C@@H]1[C@H](O)[C@@H](C)/C=C/C=C/C=C/C=C/C=C/C=C/C=C/[C@H](O[C@@H]2O[C@H](C)[C@@H](O)[C@H](N)[C@@H]2O)C[C@@H]2O[C@](O)(C[C@@H](O)C[C@@H](O)[C@H](O)CC[C@@H](O)C[C@@H](O)CC(=O)O[C@H]1C)C[C@H](O)[C@H]2C(=O)O [AmB, amphotericin B] | 
2 |  | complete loss | O=[N+]([O-])c1ccc(/C=N/N=C/c2ccco2)cc1 [compound 12, (E)-1-(Furan-2-ylmethylene)-2-[(E)-4-nitrobenzylidene]hydrazine] | complete loss
